Data on 25 compounds can be found in patent publication US5514694A, “Peptidyl ketoamides” (Georgia Tech Research Corp, priority 1993, dated 1996).

In the assay the target is T1, Calpain I from human erythrocytes (Homo sapiens, UniProt P07384).
T1 construct: Calpain I was purified from human erythrocytes; from tissue; host or cells: human erythrocytes
T1 sequence (P07384 1-714): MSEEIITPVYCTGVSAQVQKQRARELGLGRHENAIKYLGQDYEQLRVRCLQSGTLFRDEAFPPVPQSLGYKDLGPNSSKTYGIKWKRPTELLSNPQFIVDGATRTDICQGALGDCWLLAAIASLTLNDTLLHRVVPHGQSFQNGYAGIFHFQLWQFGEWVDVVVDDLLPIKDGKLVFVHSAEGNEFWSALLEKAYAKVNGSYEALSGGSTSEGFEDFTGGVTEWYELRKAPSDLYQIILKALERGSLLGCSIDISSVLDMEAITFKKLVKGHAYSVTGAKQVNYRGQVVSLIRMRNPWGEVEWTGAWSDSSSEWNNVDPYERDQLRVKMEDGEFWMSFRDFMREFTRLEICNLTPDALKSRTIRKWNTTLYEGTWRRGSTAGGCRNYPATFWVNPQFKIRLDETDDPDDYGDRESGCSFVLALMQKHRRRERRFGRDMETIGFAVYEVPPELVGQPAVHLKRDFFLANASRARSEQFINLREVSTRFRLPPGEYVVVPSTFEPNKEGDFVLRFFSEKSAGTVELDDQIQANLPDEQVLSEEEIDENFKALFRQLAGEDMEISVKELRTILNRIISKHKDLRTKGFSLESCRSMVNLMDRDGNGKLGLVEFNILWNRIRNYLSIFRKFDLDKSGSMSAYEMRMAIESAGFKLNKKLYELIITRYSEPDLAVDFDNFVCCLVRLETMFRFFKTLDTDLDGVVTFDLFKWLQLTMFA
T1 sequence (P04632 1-268 partner): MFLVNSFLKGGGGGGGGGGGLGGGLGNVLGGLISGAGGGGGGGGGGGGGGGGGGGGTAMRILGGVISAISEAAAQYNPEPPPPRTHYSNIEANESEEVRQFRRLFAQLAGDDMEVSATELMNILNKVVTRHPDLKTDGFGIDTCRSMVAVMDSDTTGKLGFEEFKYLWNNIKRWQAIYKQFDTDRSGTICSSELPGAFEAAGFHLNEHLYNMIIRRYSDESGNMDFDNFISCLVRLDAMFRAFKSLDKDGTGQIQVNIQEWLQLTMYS
Briefly: Calpain I inhibition, Suc-Leu-Tyr-AMC hydrolysis (KI). The settings on record: read-out: KI Cal I. It counts as biochemical. Here is the method:
HEPES, heparin, and A23187 were obtained from Calbiochem. Suc-Leu-Tyr-AMC and chromogenic substrates were obtained from Sigma. Calpain I was purified from human erythrocytes according to the method of Kitahara (Kitahara et al., J. Biochem. 95, 1759-1766) omitting the Blue-Sepharose step. Calpain II from rabbit muscle and cathepsin B were purchased from Sigma. Papain was purchased from Calbiochem.
Peptide α-ketoamides were assayed as reversible enzyme inhibitors. Various concentrations of inhibitors in Me2 SO were added to the assay mixture which contained buffer and substrate. The reaction was started by the addition of the enzyme and the hydrolysis rates were followed spectrophotometrically or fluorimetrically.
Calpain I from human erythrocytes and calpain II from rabbit were assayed using Suc-Leu-Tyr-AMC Sasaki et al., J. Biol. Chem. 259, 12489-12494 (1984); incorporated herein by reference!, and the AMC (7-amino-4-methylcoumarin) release was followed fluorimetrically (excitation at 380 nm, and emmision at 460 nm). Calpains were assayed in 25 mM Tris pH=8.0, 10 mM CaC12. Fluorescence was followed using a Gilson FL-1A fluorometer or a Perkin-Elmer 203 Fluorescence spectrometer. Cathepsin B was assayed in 20 mM sodium acetate pH=5.2, 0.5 mM dithiothreitol using Bz-Phe-Val-Arg-p-nitroanilide as substrate. Alternately, cathepsin B was assayed with Z-Arg-Arg-AFC Barrett and Kirschke, Methods Enzymol. 80, 535-561 (1981); incorporated herein by reference!, and the AFC (7-amino-4-trifluoromethylcoumarin) release was followed fluorimetrically (excitation at 400 nm and emmision at 505 nm). Papain was assayed in 100 mM KPO4, 1 mM EDTA, 2.5 mM cysteine pH=6.0 using Bz-Arg-AMC or Bz-Arg-NA Kanaoka et al., Chem. Pharm. Bull. 25, 3126-3128 (1977); incorporated herein by reference! as a substrate. The AMC (7-amino-4-methylcoumarin) release was followed fluorimetrically (excitation at 380 nm, and emmision at 460 nm). Enzymatic hydrolysis rates were measured at various substrate and inhibitor concentrations, and KI values were determined by either Lineweaver-Burk plots or Dixon plots.
A 0.1M Hepes, 0.5M NaCl, pH 7.5 buffer was utilized for human leukocyte elastase (HLE), porcine pancreatic elastase (PPE), chymotrypsin and cathepsin G. A 0.1 Hepes, 0.01 M CaCl2, pH 7.5 buffer was utilized for trypsin, plasmin, and coagulation enzymes. A 50 mM Tris.HCl, 2 mM EDTA, 5 mM cysteine, pH 7.5 was used as a buffer for papain. A 88 mM KH2 PO4, 12 mM Na2 HPO4, 1.33 mM EDTA, 2.7 mM cysteine, pH 6.0 solution was used as a buffer for cathepsin B. A 20 mM Hepes, 10 mM CaCl2, 10 mM mercatoethanol, pH 7.2 buffer was utilized for calpain I and calpain II.

Where [1] appears, read: Table 2, Z-Leu--AA--CONH--CH2 CH(OH)-R.

Where two headings read alike, the source gives them in different places.

As usually defined, the Ki is the dissociation constant of the complex between target and ligand, obtained from inhibition or displacement. Regarding `CCNC(=O)C(=O)C(CC)NC(=O)C(CC(C)C)NC(=O)c1nccc2ccccc12` (stereo not drawn) [1-isoquinolinyl-CO-Leu-Abu-CONH-Et, 1-Isoquinolinyl-CO-Leu-Abu-CONHEt], under “Table 3, M1 CO-Leu--AA--CONH-R”, the Ki is 350 nM.
On the same count and under the same terms, in the case of `CCNC(=O)C(=O)C(CC)NC(=O)C(CC(C)C)NC(=O)c1ccco1` (stereo not drawn) [2-furyl-CO-Leu-Abu-CONH-Et, 2-Furyl-CO-Leu-Abu-CONHEt] it was 850 nM; in that of `CCNC(=O)C(=O)C(CC)NC(=O)C(CC(C)C)NC(=O)c1cnccn1` (stereo not drawn) [2-pyrazinyl-CO-Leu-Abu-CONH-Et, 2-Pyrazinyl-CO-Leu-Abu-CONHEt], 300 nM.
On the same count and under the same terms, in the case of `CCNC(=O)C(=O)C(CC)NC(=O)C(CC(C)C)NC(=O)C1CCCO1` (stereo not drawn) [2-tetrahydrofuryl-CO-Leu-Abu-CONH-Et, 2-Tetrahydrofuryl-CO-Leu-Abu-CONHEt] it was 18500 nM; in that of `CCNC(=O)C(=O)C(CC)NC(=O)C(CC(C)C)NC(=O)c1cccnc1` (stereo not drawn) [3-pyridyl-CO-Leu-Abu-CONH-Et, 3-Pyridyl-CO-Leu-Abu-CONHEt], 1300 nM.
Same read-out and setting: in the case of `CCNC(=O)C(=O)C(CC)NC(=O)C(CC(C)C)NC(=O)N1CCOCC1` (stereo not drawn) [4-morpholinyl-CO-Leu-Abu-CONH-Et, 4-Morpholinyl-CO-Leu-Abu-CONHEt] it was 7900 nM.
As to `CCNC(=O)C(=O)[C@H](CC)NC(=O)[C@H](CC(C)C)NC(=O)CCC(=O)OC` [CH3 OCO(CH2)2-CO-Leu-Abu-CONH-Et, CH3 OCO(CH2)2 CO-Leu-Abu-CONHEt], where the note is “Table 3, M1 CO-Leu--AA--CONH-R”, the Ki is 3800 nM.
As to `CCC(NC(=O)C(CC(C)C)NC(=O)C(c1ccccc1)c1ccccc1)C(=O)C(=O)NCC(O)c1ccccc1` (stereo not drawn) [Ph2 CH-CO-Leu-Abu-CONH-CH2 CH(OH)Ph, Ph2 CHCO-Leu-Abu-CONH--CH2 CH(OH)Ph], for the setting “Table 3, M1 CO-Leu--AA--CONH-R”, the Ki turned out to be 750 nM.
Regarding `CCC(NC(=O)C(CC(C)C)NC(=O)OCc1ccccc1)C(=O)C(=O)NCCCN1CCCc2ccccc21` (stereo not drawn) [Z-Leu-Abu-CONH--(CH2)3 -1-Tetrahydroquinolinyl], the Ki (Table 1, Z-Leu--AA--CONHR) is 370 nM.
Turning to `CCC(NC(=O)C(CC(C)C)NC(=O)OCc1ccccc1)C(=O)C(=O)NCC(O)c1cccc(Oc2ccc(Cl)c(Cl)c2)c1` (stereo not drawn) [Z-Leu-Abu-CONH--CH2 CH(OH)C6 H4 -3-OC6 H3 (3,4-Cl2)], under setting [1], the inhibition constant (Ki) is 270 nM.
Regarding `CCC(NC(=O)C(CC(C)C)NC(=O)OCc1ccccc1)C(=O)C(=O)NCc1nc(C)cs1` (stereo not drawn) [Z-Leu-Abu-CONH-CH2 -2-(4-methylthiazole), Z-Leu-Abu-CONH--CH2 -2-(4-Methyl-2-thiazolyl)], where the note is “Table 1, Z-Leu--AA--CONHR”, the Ki came to 34000 nM.
As to `CCC(NC(=O)[C@H](CC(C)C)NC(=O)OCc1ccccc1)C(=O)C(=O)NCc1ccc2ccccc2n1` (stereo partly drawn) [Z-Leu-Abu-CONH-CH2 -2-quinolinyl, Z-Leu-Abu-CONH--CH2 -2-Quinolinyl], the Ki (Table 1, Z-Leu--AA--CONHR) was determined as 130 nM.
Same read-out and setting: in the case of `CCC(NC(=O)C(CC(C)C)NC(=O)OCc1ccccc1)C(=O)C(=O)NCc1ccc[n+]([O-])c1` (stereo not drawn) [Z-Leu-Abu-CONH-CH2 -3-pyridyl-N-oxide, Z-Leu-Abu-CONH--CH2 -3-Pyridyl-N-oxide] it was 9500 nM; in that of `CCC(NC(=O)C(CC(C)C)NC(=O)OCc1ccccc1)C(=O)C(=O)NCc1cc(=O)[nH]c(=O)[nH]1` (stereo not drawn) [Z-Leu-Abu-CONH-CH2 -6-uracil, Z-Leu-Abu-CONH--CH2 -6-Uracil], 9000 nM.
Take `CCC(NC(=O)C(CC(C)C)NC(=O)OCc1ccccc1)C(=O)C(=O)NCC(O)c1cccc2ccccc12` (stereo not drawn) [Z-Leu-Abu-CONH-CH2 CH(OH)-1-C10 H7, Z-Leu-Abu-CONH--CH2 CH(OH)-1-C10 H7]: the inhibition constant (Ki) under setting [1] was 120 nM.
With `CCC(NC(=O)C(CC(C)C)NC(=O)OCc1ccccc1)C(=O)C(=O)NCC(O)c1ccc2ccccc2c1` (stereo not drawn) [Z-Leu-Abu-CONH-CH2 CH(OH)-2-C10 H7, Z-Leu-Abu-CONH--CH2 CH(OH)-2-C10 H7], the Ki under setting [1] worked out at 350 nM.
Consider `CC(C)CC(NC(=O)OCc1ccccc1)C(=O)NC(Cc1ccccc1)C(=O)C(=O)NCCNC(=O)CCCCC1SCC2NC(=O)NC21` (stereo not drawn) [Z-Leu-Phe-CONH-(CH2)2 NH-biotinyl, Z-Leu-Phe-CONH--(CH2)2 NH-Biotinyl], for which the Ki (Table 1, Z-Leu--AA--CONHR) stood at 220 nM.
Take `CC(C)CC(NC(=O)OCc1ccccc1)C(=O)NC(Cc1ccccc1)C(=O)C(=O)NCCCN1CCCc2ccccc21` (stereo not drawn) [Z-Leu-Phe-CONH--(CH2)3-1-Tetrahydroquinolinyl]: the Ki (Table 1, Z-Leu--AA--CONHR) came to 380 nM.
As for `CC(C)CC(NC(=O)OCc1ccccc1)C(=O)NC(Cc1ccccc1)C(=O)C(=O)NCCCN1CCc2ccccc2C1` (stereo not drawn) [Z-Leu-Phe-CONH--(CH2)3-2-Tetrahydroisoquinolinyl], the Ki (Table 1, Z-Leu--AA--CONHR) turned out to be 220 nM.
Take `CC(C)CC(NC(=O)OCc1ccccc1)C(=O)NC(Cc1ccccc1)C(=O)C(=O)NCC(O)c1cccc(Oc2ccc(Cl)c(Cl)c2)c1` (stereo not drawn) [Z-Leu-Phe-CONH--CH2 CH(OH)C6 H4 -3-OC6 H3 (3,4-Cl2)]: the Ki under setting [1] turned out to be 590 nM.
Same read-out and setting: in the case of `CC(C)CC(NC(=O)OCc1ccccc1)C(=O)NC(Cc1ccccc1)C(=O)C(=O)NCC(O)c1c(F)c(F)c(F)c(F)c1F` (stereo not drawn) [Z-Leu-Phe-CONH-CH2 CH(OH)-C6 F5, Z-Leu-Phe-CONH--CH2 CH(OH)C6 F5] it was 700 nM; in that of `CC(C)CC(NC(=O)OCc1ccccc1)C(=O)NC(Cc1ccccc1)C(=O)C(=O)NCC(O)c1cccc(Oc2ccccc2)c1` (stereo not drawn) [Z-Leu-Phe-CONH-CH2 CH(OH)-C6 H4 (3-OPh), Z-Leu-Phe-CONH--CH2 CH(OH)C6 H4 (3-OPh)], 600 nM.
In the case of “Ph2 CHCO-Leu-Abu-CONHEt [Ph2 CH-CO-Leu-Abu-CONH-Et]”, under “Table 3, M1 CO-Leu--AA--CONH-R”, the Ki was determined as 5000 nM.
On to “Z-Leu-Abu-CONH--CH2 CH(OH)C6 H2 (2,4,6-(OCH3)3)”, for which the Ki under setting [1] was determined as 380 nM.
Turning to “Z-Leu-Phe-CONH--CH2 CH(OH)C6 H4 (3-CF3) [Z-Leu-Phe-CONH-CH2 CH(OH)-C6 H4 (3-CF3)]”, the inhibitory constant (Ki) under setting [1] was 460 nM.
